How the values were obtained:
[1] = biological target: T1, ICAM-1 binding to immobilized Mac-1 (Homo sapiens, UniProt P05107+P11215); assay: Mac-1/ICAM-1 screening assay (solid-phase ELISA); details: read-out: Mac-1/ICAM-1 Protein-Protein Assay IC50
T1 construct: made in house; host or cells: transfected 293 cells (Mac-1)
How it was run: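 Competitive solid-phase ELISA: membrane Mac-1 from transfected 293 cells coated at 3 μg/mL in 20 mM Hepes pH 7.2/0.14 M NaCl/1 mM MnCl2; compounds (0.12 nM-20 μM, 1:4 series) plus 5dICAM-Ig (40 μg/mL, added) 2 h at 37° C. Bound ICAM-Ig detected with HRP anti-human IgG Fc, TMB, A450; IC50 reported.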

[2] = test system: T lymphocyte proliferation (C57BI/6 spleen cells with irradiated BALB/c spleen cells); assay: Mixed lymphocyte reaction (MLR), one-way; format: cell-based, mice; details: Mus musculus, T-lymphocyte; read-out: MLR IC50
How it was run: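 One-way murine MLR: C57BI/6 responder splenocytes proliferate against irradiated BALB/c stimulators while exposed to serially diluted antagonists in supplemented RPMI1640 for 3 days. Proliferation read as [3H]-thymidine uptake over a final 6 h pulse (0.5 μCi/well), scintillation counted.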

[3] = test system: cell-surface Mac-1 adhesion to immobilized fibrinogen (HL-60 cells); assay: Mac-1/Fibrinogen cell-based screening assay; design: species or system human; details: Homo sapiens, HL-60, HL-60 cells; read-out: Mac-1/Fgn Cell based Assay IC50
How it was run: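 Wells coated with fibrinogen and blocked with PVP. Labeled HL-60 cells (2×10^6 cells/mL in RPMI/0.05% BSA/0.2 mM MnCl2) preincubated with DMSO-diluted compounds for 10 min at 37° C, then left to adhere 30 min at 37° C/5% CO2. Unbound cells washed off with TBS.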

T1 sequence (P05107 23-769, other chains not shown): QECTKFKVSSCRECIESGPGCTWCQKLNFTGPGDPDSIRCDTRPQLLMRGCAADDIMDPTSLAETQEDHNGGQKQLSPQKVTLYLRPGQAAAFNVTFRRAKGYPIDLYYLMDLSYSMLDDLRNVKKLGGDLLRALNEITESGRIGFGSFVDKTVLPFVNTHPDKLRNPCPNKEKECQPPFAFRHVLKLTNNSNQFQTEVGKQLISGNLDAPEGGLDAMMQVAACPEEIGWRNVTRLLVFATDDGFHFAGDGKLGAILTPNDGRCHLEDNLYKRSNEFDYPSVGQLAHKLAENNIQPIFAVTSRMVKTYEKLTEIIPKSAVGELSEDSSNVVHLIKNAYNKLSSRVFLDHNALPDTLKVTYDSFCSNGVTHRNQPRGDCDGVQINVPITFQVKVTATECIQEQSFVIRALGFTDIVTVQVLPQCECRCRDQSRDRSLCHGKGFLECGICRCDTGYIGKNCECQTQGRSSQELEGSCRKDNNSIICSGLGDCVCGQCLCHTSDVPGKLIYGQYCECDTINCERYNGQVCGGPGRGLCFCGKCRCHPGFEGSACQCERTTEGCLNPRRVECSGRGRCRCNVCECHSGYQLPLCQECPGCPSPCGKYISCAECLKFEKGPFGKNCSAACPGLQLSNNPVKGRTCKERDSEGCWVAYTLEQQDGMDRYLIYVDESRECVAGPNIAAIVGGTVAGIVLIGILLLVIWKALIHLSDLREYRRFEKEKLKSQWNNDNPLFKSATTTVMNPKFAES

IC50 [1]	IC50 [3]	Compound	IC50 [2]
6.8 nM	43 nM	COc1cccc(C(=O)NC[C@H](NC(=O)c2ccc(C(=O)NCc3cccc(O)c3)cc2Cl)C(=O)O)c1 [Example 76, N-[2-chloro-4-[[[(3-hydroxyphenyl)methyl]amino]-carbonyl]benzoyl]-3-(3-methoxybenzoylamino)-L-alanine]	310 nM
56 nM		O=C1CC[C@@H](C(=O)NC[C@H](NC(=O)c2ccc(C(=O)NCc3cccc(O)c3)cc2Cl)C(=O)O)O1 [Example 96]	1300 nM
121 nM		O=C(NCc1cccc(O)c1)c1ccc(C(=O)N[C@@H](CNC(=O)C2CC2)C(=O)O)c(Cl)c1 [Example 97]	1550 nM
50 nM		O=C(NCc1cccc(O)c1)c1ccc(C(=O)N[C@@H](CNC(=O)C2(c3ccccc3)CC2)C(=O)O)c(Cl)c1 [Example 99]	2000 nM
32 nM		O=C(NCc1cccc(O)c1)c1ccc(C(=O)N[C@@H](CNC(=O)C2CCC2)C(=O)O)c(Cl)c1 [Example 100]	705 nM
29 nM	79 nM	O=C(NCc1cccc(O)c1)c1ccc(C(=O)N[C@@H](CNC(=O)C2CCCC2)C(=O)O)c(Cl)c1 [Example 101]	565 nM
50 nM		COCCC1(C(=O)NC[C@H](NC(=O)c2ccc(C(=O)NCc3cccc(O)c3)cc2Cl)C(=O)O)CCCC1 [Example 102]	400 nM
21 nM	123 nM	O=C(NCc1cccc(O)c1)c1ccc(C(=O)N[C@@H](CNC(=O)C2(c3ccccc3)CCCC2)C(=O)O)c(Cl)c1 [Example 103]	520 nM
272 nM		O=C(NCc1cccc(O)c1)c1ccc(C(=O)N[C@@H](CNC(=O)[C@H](CC2CCCCC2)n2cccc2)C(=O)O)c(Cl)c1 [Example 110]	10000 nM
44 nM		Cc1noc(C)c1CCC(=O)NC[C@H](NC(=O)c1ccc(C(=O)NCc2cccc(O)c2)cc1Cl)C(=O)O [Example 111]	500 nM
30 nM		C/C=C/C(=O)NC[C@H](NC(=O)c1ccc(C(=O)NCc2cccc(O)c2)cc1Cl)C(=O)O [Example 113]	350 nM
48 nM		COc1ccc(/C=C/C(=O)NC[C@H](NC(=O)c2ccc(C(=O)NCc3cccc(O)c3)cc2Cl)C(=O)O)cc1 [Example 114]	1650 nM
43 nM		O=C(/C=C/c1cccnc1)NC[C@H](NC(=O)c1ccc(C(=O)NCc2cccc(O)c2)cc1Cl)C(=O)O [Example 115]	1350 nM
114 nM		O=C(NCc1cccc(O)c1)c1ccc(C(=O)N[C@@H](CNC(=O)c2ccccc2Br)C(=O)O)c(Cl)c1 [Example 120]	890 nM
32 nM		O=C(NCc1cccc(O)c1)c1ccc(C(=O)N[C@@H](CNC(=O)c2ccccc2Cl)C(=O)O)c(Cl)c1 [Example 122]	925 nM
35 nM		O=C(NCc1cccc(O)c1)c1ccc(C(=O)N[C@@H](CNC(=O)c2ccc(Cl)cc2)C(=O)O)c(Cl)c1 [Example 124]	2500 nM
124 nM		CN(C)c1ccc(C(=O)NC[C@H](NC(=O)c2ccc(C(=O)NCc3cccc(O)c3)cc2Cl)C(=O)O)cc1 [Example 128]	4900 nM
53 nM		CCOc1ccc(C(=O)NC[C@H](NC(=O)c2ccc(C(=O)NCc3cccc(O)c3)cc2Cl)C(=O)O)cc1 [Example 130]	3000 nM
61 nM		COc1ccc(C(=O)NC[C@H](NC(=O)c2ccc(C(=O)NCc3cccc(O)c3)cc2Cl)C(=O)O)cc1 [Example 135]	2640 nM
47 nM		Cc1ccc(C(=O)NC[C@H](NC(=O)c2ccc(C(=O)NCc3cccc(O)c3)cc2Cl)C(=O)O)cc1 [Example 139]	1750 nM
62 nM		CCCCCOc1ccc(C(=O)NC[C@H](NC(=O)c2ccc(C(=O)NCc3cccc(O)c3)cc2Cl)C(=O)O)cc1 [Example 143]	12000 nM
53 nM		O=C(NCc1cccc(O)c1)c1ccc(C(=O)N[C@@H](CNC(=O)c2ccccc2Oc2ccccc2)C(=O)O)c(Cl)c1 [Example 144]	1800 nM
119 nM		COc1cc(C(=O)NC[C@H](NC(=O)c2ccc(C(=O)NCc3cccc(O)c3)cc2Cl)C(=O)O)cc(OC)c1OC [Example 147]	4600 nM

IC50 [1]	IC50 [3]	Compound	IC50 [2]
35 nM		O=C(NCc1cccc(O)c1)c1ccc(C(=O)N[C@@H](CNC(=O)c2ccc([N+](=O)[O-])o2)C(=O)O)c(Cl)c1 [Example 149]	950 nM
203 nM	804 nM	Cc1noc(C)c1C(=O)NC[C@H](NC(=O)c1ccc(C(=O)NCc2cccc(O)c2)cc1Cl)C(=O)O [Example 153]	
40 nM		Cc1cccc(C(=O)NC[C@H](NC(=O)c2ccc(C(=O)NCc3cccc(O)c3)cc2Cl)C(=O)O)n1 [Example 163]	1550 nM
39 nM		O=C(NCc1cccc(O)c1)c1ccc(C(=O)N[C@@H](CNC(=O)c2cccnc2)C(=O)O)c(Cl)c1 [Example 165]	800 nM
	4 nM	C[C@@H](NC(=O)c1cc(Cl)c(C(=O)N[C@@H](CNC(=O)c2cccs2)C(=O)O)c(Cl)c1)c1cccc2ccccc12 [Example 346, N-[2,6-dichloro-4-[[[(1R)-1-(1-naphthalenyl)ethyl]amino]carbonyl]benzoyl]-3-[(thiophene-2-carbonyl)amino]-L-alanine]	68 nM
	13.1 nM	C[C@@H](NC(=O)c1cc(Cl)c(C(=O)N[C@@H](CNC(=O)c2ccccc2)C(=O)O)c(Cl)c1)c1cccc2ccccc12 [Example 347]	250 nM
	6.2 nM	O=C(NCc1cccc(O)c1)c1cc(Cl)c(C(=O)N[C@@H](CNC(=O)c2cccc(F)c2)C(=O)O)c(Cl)c1 [Example 349]	42 nM
	0.5 nM	O=C(NCc1cccc(O)c1)c1cc(Cl)c(C(=O)N[C@@H](CNC(=O)c2cccc(O)c2)C(=O)O)c(Cl)c1 [Example 350]	12 nM
	3 nM	COc1ccc(C(=O)NC[C@H](NC(=O)c2c(Cl)cc(C(=O)NCc3cccc(O)c3)cc2Cl)C(=O)O)cc1O [Example 351]	23 nM
	13 nM	O=C(NCc1cccc(O)c1)c1cc(Cl)c(C(=O)N[C@@H](CNC(=O)c2sccc2Br)C(=O)O)c(Cl)c1 [Example 353]	52 nM
	12 nM	O=C(NCc1cccc(O)c1)c1cc(Cl)c(C(=O)N[C@@H](CNC(=O)c2ccc(Br)s2)C(=O)O)c(Cl)c1 [Example 354]	203 nM
	6.5 nM	Cc1ccc(C(=O)NC[C@H](NC(=O)c2c(Cl)cc(C(=O)NCc3cccc(O)c3)cc2Cl)C(=O)O)s1 [Example 358]	64 nM
600 nM		O=C(NCc1cccc(O)c1)c1ccc(C(=O)N[C@@H](CNS(=O)(=O)c2ccccc2)C(=O)O)c(Cl)c1 [Example 360, 3-(phenylsulfonylamino)-N-[2-chloro-4-[[[(3-hydroxyphenyl)methyl]amino]carbonyl]benzoyl]-L-alanine]	4600 nM
1530 nM		CC(=O)Nc1nc(C)c(S(=O)(=O)NC[C@H](NC(=O)c2ccc(C(=O)N[C@H](C)c3cccc4ccccc34)cc2Cl)C(=O)O)s1 [Example 362]	15000 nM
167 nM		O=C(NCc1ccc(C(=O)N[C@@H](CNC(=O)c2ccccc2)C(=O)O)c(Cl)c1)c1cccc(O)c1 [Example 364, N-[2-chloro-4-[[(3-hydroxyphenyl)carbonyl]aminomethyl]benzoyl]-3-benzoylamino-L-alanine]	2850 nM
208 nM		O=C(NC[C@H](NC(=O)c1ccc(CNC(=O)c2ccccc2O)cc1Cl)C(=O)O)c1ccccc1 [Example 365]	9500 nM
61 nM		O=C(NCc1ccc(C(=O)N[C@@H](CNC(=O)c2ccccc2)C(=O)O)c(Cl)c1)c1cc(O)cc(O)c1 [Example 366]	1400 nM
765 nM		O=C(NCc1ccc(C(=O)N[C@@H](CNC(=O)c2ccccc2)C(=O)O)c(Cl)c1)c1ccc2[nH]ccc2c1 [Example 368]	3850 nM
403 nM		O=C(NCc1ccc(C(=O)N[C@@H](CNC(=O)c2ccccc2)C(=O)O)c(Cl)c1)c1ccc2cc[nH]c2c1 [Example 369]	3200 nM
73 nM		N=C(N)NC[C@H](NC(=O)c1ccc(C(=O)NCc2cccc(O)c2)cc1Cl)C(=O)O [Example 371, N-[2-chloro-4-[[[(3-hydroxyphenyl)methyl]amino]-carbonyl]benzoyl]-3-(aminoiminomethyl)amino-L-alanine]	3500 nM
68 nM		O=C(NC[C@H](NC(=O)c1ccc(/C=C/Cc2ccccc2)cc1Cl)C(=O)O)c1cccs1 [Example 373, N-[2-chloro-4-(3-phenyl-1-propenyl)benzoyl]-3-(thiophene-2-carbonyl)amino-L-alanine]	12500 nM
160 nM		O=C(NC[C@H](NC(=O)c1ccc(C(=O)[C@H]2C[C@@H]2c2ccccc2)cc1Cl)C(=O)O)c1cccs1 [Example 377]	9500 nM
75 nM		O=C(CCc1ccccc1)c1ccc(C(=O)N[C@@H](CNC(=O)c2cccs2)C(=O)O)c(Cl)c1 [Example 378]	6400 nM

Reference: patent US20040006236A1, “Diaminopropionic acid derivatives” (priority 1999, published 2004)
